Laboratory results published in US10731159B2, “Cationic lipid” (DAIICHI SANKYO COMPANY, LIMITED, priority 2013, dated 2020).

How the values were obtained:
Format in all cases: cell-based
[1] = tested on: human hepatocellular carcinoma HuH-7 cell line; experiment: Test Example 11: expression level of luciferase (FLuc mRNA) in HuH-7 cells; details: six hours after transfection; for expression level of luciferase, RLU: average N=3
Protocol: The concentration of a human hepatocellular carcinoma HuH-7 cell line was adjusted to 10,000 cells/mL in a DMEM medium (manufactured by Invitrogen Corp.) containing 10% fetal bovine serum (culture medium). Then, the resulting culture solution was inoculated at 100 μL/well to a 96-well flat-bottomed plate (manufactured by Corning Inc./Falcon) and cultured at 37° C. for 1 day under 5.0% CO2. The nucleic acid lipid particle dispersion prepared in Example 58 was diluted with a culture medium to prepare dilution series having final mRNA concentrations of 2, 0.4, and 0.08 μg/mL in the medium. Then, each dilution was added to the cells after removal of the culture supernatant, and the culture was further continued. This operation was performed at N=3 for each concentration. A control group was cultured in only a culture medium.
Six hours after the transfection, the expression level of luciferase was measured using Luciferase reporter Gene Assay, high sensitivity (manufactured by F. Hoffmann-La Roche, Ltd.) according to the attached document.

human β-catenin gene [2] = experiment: Test Example 8: β-catenin gene expression inhibition in SW480 cells, procedures of Test Example 3, 50-0.05 nM; details: procedures of Test Example 3, 50, 5, 0.5, 0.05 nM, particles of Example 55, read-out: β-catenin gene expression inhibitory activity IC50
Protocol: (§1) The concentration of a human colorectal cancer SW480 cell line (derived from human colorectal adenocarcinoma) was adjusted to 50000 cells/mL in a RPMI1640 medium (manufactured by Invitrogen Corp.) containing 10% fetal bovine serum (culture medium). Then, the resulting culture solution was inoculated at 100 μL/well to a 96-well flat-bottomed plate (manufactured by Corning Inc./Falcon) and cultured at 37° C. for 1 day under 5.0% CO2. The nucleic acid lipid particle-containing dispersion prepared in Example 31 was diluted with a culture medium to prepare dilution series having final double-stranded polynucleotide concentrations of 30, 3, 0.3, and 0.03 nM in the medium. Then, each dilution was added to the cells after removal of the culture supernatant, and the culture was further continued for 4 hours. This operation was performed at N=3 for each concentration.
(§2) A lysate and cDNA for real-time PCR measurement were prepared from the transfected cells using TaqMan® Fast-Cells-to-Ct kit (Life Technologies, Inc./Ambion) according to the instruction manual. In the lysate preparation, Lysis Solution supplemented with DNase I was used. The probes for real-time PCR used were TaqMan® Gene Expression Assays (CTNNB1, FAM probe) (Hs00355045_m1, manufactured by Applied Biosystems, Inc.) for the human β-catenin gene and a human GAPDH gene probe as an internal standard (VIC probe, Hs99999905_m1, manufactured by Applied Biosystems, Inc.). 5 μL of TaqMan® Fast Advanced Master Mix, 2 μL of RNase-Free Water, 0.5 μL of each gene probe, and 2 μL of the prepared cDNA solution were added per well of a 384-well PCR plate (manufactured by Applied Biosystems, Inc.) to bring the total amount to 10 μL, which was then loaded in ViiA™ 7 Real-time PCR system (manufactured by Applied Biosystems, Inc.) and subjected to PCR under conditions given below. The real-time PCR was carried out at N=4 for the cDNA prepared from the lysate.
(§3) The quantitative analysis was conducted by the ΔΔCt method.
By the same procedures as in Test Example 3, SW480 cells were treated with 50 nM, 5 nM, 0.5 nM, and 0.05 nM each of nucleic acid lipid particles each prepared using a novel lipid, and the strength of human β-catenin gene expression inhibitory activity was compared among these particles.

human β-catenin gene [3] = experiment: Test Example 1: β-catenin gene expression inhibition in SW480 cells, 3 days, real-time PCR; details: nucleic acid lipid particle of Example 31 containing the named lipid, double-stranded polynucleotide concentration, read-out: β-catenin gene expression inhibitory activity IC50
Protocol: As described below, the strength of human β-catenin gene expression inhibitory activity was compared among nucleic acid lipid particles each prepared using a novel lipid.
as §1, with “to 50,000” for “to 50000”, “in an” for “in a”, “lipid particle” for “lipid particle-containing”, “30, 3.0,” for “30, 3,”, “for 3 days.” for “for 4 hours.”
as §2
PCR initial activation: 95° C. for 20 seconds
PCR: 95° C. for 1 second • 62° C. for 20 seconds
This PCR cycle was repetitively performed 40 times.
as §3

Structure (SMILES)	expression level of luciferase, RLU ([1]; FLuc mRNA concentration 0.08 μg/mL)	expression level of luciferase, RLU ([1]; FLuc mRNA concentration 0.4 μg/mL)	expression level of luciferase, RLU ([1]; FLuc mRNA concentration 2.0 μg/mL)	expression of FLuc (in words) ([1]; particle of Example 58)	IC50 (human β-catenin gene [2]) [nM]	IC50 (human β-catenin gene [3]) [nM]
CCCCC/C=C\C/C=C\CCCCCCCC(CCCCCCCCCC)OC(=O)OCCCN(C)C (stereo not drawn) [Example 8, 3-Dimethylaminopropyl(9Z,12Z)-octacosa-19,22-dien-11-yl Carbonate]	0.7 1 × 10^5	2.7 1 × 10^5	3.7 1 × 10^5	promote the expression of FLuc	–	–
CCCCC/C=C\C/C=C\CCCCCCCCC(CCCCCCCC/C=C\C/C=C\CCCCC)OC(=O)OCCN(C)C [Reference Example 2, 2-(Dimethylamino)ethyl(6Z,9Z,28Z,31Z)-heptatriaconta-6,9,28,31-tetraen-19-yl Carbonate, reference compound]	–	–	–	–	> 50	> 30
